Data reported in PubChem BioAssay (NCI).
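GI50 = concentration required for 50% inhibition of growth. TGI: total growth inhibition.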

Key:
Assay in all cases: DTP human tumour cell line panel, 384-well format
DU-145 prostate = system: DU-145 prostate
NCI-H460 NSCLC = system: NCI-H460 NSCLC
HOP-92 NSCLC = system: HOP-92 NSCLC
RXF 393 renal = system: RXF 393 renal
SK-MEL-5 melanoma = system: SK-MEL-5 melanoma
OVCAR-3 ovarian = system: OVCAR-3 ovarian
HCT-116 colon = system: HCT-116 colon
MALME-3M melanoma = system: MALME-3M melanoma
OVCAR-4 ovarian = system: OVCAR-4 ovarian
COLO 205 colon = system: COLO 205 colon
RPMI-8226 leukemia = system: RPMI-8226 leukemia
786-0 renal = system: 786-0 renal
HS 578T breast = system: HS 578T breast
SK-MEL-28 melanoma = system: SK-MEL-28 melanoma
HT29 colon = system: HT29 colon
K-562 leukemia = system: K-562 leukemia
SNB-19 CNS = system: SNB-19 CNS
UACC-62 melanoma = system: UACC-62 melanoma
A549 NSCLC = system: A549 NSCLC
NCI-H322M lung = system: NCI-H322M lung
UACC-257 melanoma = system: UACC-257 melanoma
HCT-15 colon = system: HCT-15 colon
A498 renal = system: A498 renal
SNB-75 CNS = system: SNB-75 CNS
KM12 colon = system: KM12 colon
LOX IMVI melanoma = system: LOX IMVI melanoma
SW-620 colon = system: SW-620 colon
MCF7 breast = system: MCF7 breast
IGROV1 ovarian = system: IGROV1 ovarian
SF-295 CNS = system: SF-295 CNS
HCC-2998 colon = system: HCC-2998 colon
HL-60(TB) leukemia = system: HL-60(TB) leukemia
MDA-MB-468 breast = system: MDA-MB-468 breast
ACHN renal = system: ACHN renal
EKVX NSCLC = system: EKVX NSCLC
NCI/ADR-RES ovarian = system: NCI/ADR-RES ovarian
SK-OV-3 ovarian = system: SK-OV-3 ovarian
TK-10 renal = system: TK-10 renal
M14 melanoma = system: M14 melanoma
OVCAR-5 ovarian = system: OVCAR-5 ovarian
OVCAR-8 ovarian = system: OVCAR-8 ovarian
U251 glioblastoma = system: U251 glioblastoma
MOLT-4 leukemia = system: MOLT-4 leukemia
CAKI-1 renal = system: CAKI-1 renal
SF-268 CNS = system: SF-268 CNS
T-47D breast = system: T-47D breast
NCI-H226 lung = system: NCI-H226 lung
SF-539 CNS = system: SF-539 CNS
NCI-H23 lung = system: NCI-H23 lung
SN12C renal = system: SN12C renal
UO-31 renal = system: UO-31 renal
PC-3 prostate = system: PC-3 prostate
CCRF-CEM leukemia = system: CCRF-CEM leukemia
HOP-62 NSCLC = system: HOP-62 NSCLC
BT-549 breast = system: BT-549 breast
NCI-H522 lung = system: NCI-H522 lung

CN[C@@H](C)C(=O)N[C@H]1CN(C(=O)CC(C)C)CC[C@H]2CC[C@@H](C(=O)NC(c3ccccc3)c3ccccc3)N2C1=O
GI50 (DU-145 prostate): > 100 µM
TGI (DU-145 prostate): > 100 µM
GI50 (NCI-H460 NSCLC): > 100 µM
TGI (NCI-H460 NSCLC): > 100 µM
GI50 (HOP-92 NSCLC): 13.8 µM
TGI (HOP-92 NSCLC): 50.7 µM
GI50 (RXF 393 renal): 0.823 µM
TGI (RXF 393 renal): 20 µM
GI50 (SK-MEL-5 melanoma): 3.63 µM
TGI (SK-MEL-5 melanoma): 21.8 µM
GI50 (OVCAR-3 ovarian): > 100 µM
TGI (OVCAR-3 ovarian): > 100 µM
GI50 (HCT-116 colon): > 100 µM
TGI (HCT-116 colon): > 100 µM
GI50 (MALME-3M melanoma): 0.542 µM
TGI (MALME-3M melanoma): 11 µM
GI50 (OVCAR-4 ovarian): 0.167 µM
TGI (OVCAR-4 ovarian): 1.05 µM
GI50 (COLO 205 colon): > 100 µM
TGI (COLO 205 colon): > 100 µM
GI50 (RPMI-8226 leukemia): 24.4 µM
TGI (RPMI-8226 leukemia): > 100 µM
GI50 ([…]-0 renal): > 100 µM
TGI (786-0 renal): > 100 µM
GI50 (HS 578T breast): 16.4 µM
TGI (HS 578T breast): > 100 µM
GI50 (SK-MEL-28 melanoma): > 100 µM
TGI (SK-MEL-28 melanoma): > 100 µM
GI50 (HT29 colon): 39.8 µM
TGI (HT29 colon): > 100 µM
GI50 (K-562 leukemia): 56.6 µM
TGI (K-562 leukemia): > 100 µM
GI50 (SNB-19 CNS): > 100 µM
TGI (SNB-19 CNS): > 100 µM
GI50 (UACC-62 melanoma): > 100 µM
TGI (UACC-62 melanoma): > 100 µM
GI50 (A549 NSCLC): > 100 µM
TGI (A549 NSCLC): > 100 µM
GI50 (NCI-H322M lung): > 100 µM
TGI (NCI-H322M lung): > 100 µM
GI50 (UACC-257 melanoma): 24.7 µM
TGI (UACC-257 melanoma): 55 µM
GI50 (HCT-15 colon): > 100 µM
TGI (HCT-15 colon): > 100 µM
GI50 (A498 renal): > 100 µM
TGI (A498 renal): > 100 µM
GI50 (SNB-75 CNS): 49.9 µM
TGI (SNB-75 CNS): > 100 µM
GI50 (KM12 colon): > 100 µM
TGI (KM12 colon): > 100 µM
GI50 (LOX IMVI melanoma): > 100 µM
TGI (LOX IMVI melanoma): > 100 µM
GI50 (SW-620 colon): > 100 µM
TGI (SW-620 colon): > 100 µM
GI50 (MCF7 breast): 83.8 µM
TGI (MCF7 breast): > 100 µM
GI50 (IGROV1 ovarian): > 100 µM
TGI (IGROV1 ovarian): > 100 µM
GI50 (SF-295 CNS): > 100 µM
TGI (SF-295 CNS): > 100 µM
GI50 (HCC-2998 colon): 12.5 µM
TGI (HCC-2998 colon): > 100 µM
GI50 (HL-60(TB) leukemia): 1.56 µM
TGI (HL-60(TB) leukemia): 12.1 µM
GI50 (MDA-MB-468 breast): 2.78 µM
TGI (MDA-MB-468 breast): 72.1 µM
GI50 (ACHN renal): > 100 µM
TGI (ACHN renal): > 100 µM
GI50 (EKVX NSCLC): > 100 µM
TGI (EKVX NSCLC): > 100 µM
GI50 (NCI/ADR-RES ovarian): > 100 µM
TGI (NCI/ADR-RES ovarian): > 100 µM
GI50 (SK-OV-3 ovarian): 0.357 µM
TGI (SK-OV-3 ovarian): 9.16 µM
GI50 (TK-10 renal): > 100 µM
TGI (TK-10 renal): > 100 µM
GI50 (M14 melanoma): > 100 µM
TGI (M14 melanoma): > 100 µM
GI50 (OVCAR-5 ovarian): > 100 µM
TGI (OVCAR-5 ovarian): > 100 µM
GI50 (OVCAR-8 ovarian): 68.8 µM
TGI (OVCAR-8 ovarian): > 100 µM
GI50 (U251 glioblastoma): > 100 µM
TGI (U251 glioblastoma): > 100 µM
GI50 (MOLT-4 leukemia): 35.1 µM
TGI (MOLT-4 leukemia): > 100 µM
GI50 (CAKI-1 renal): > 100 µM
TGI (CAKI-1 renal): > 100 µM
GI50 (SF-268 CNS): > 100 µM
TGI (SF-268 CNS): > 100 µM
GI50 (T-47D breast): > 100 µM
TGI (T-47D breast): > 100 µM
GI50 (NCI-H226 lung): > 100 µM
TGI (NCI-H226 lung): > 100 µM
GI50 (SF-539 CNS): > 100 µM
TGI (SF-539 CNS): > 100 µM
GI50 (NCI-H23 lung): 49 µM
TGI (NCI-H23 lung): > 100 µM
GI50 (SN12C renal): > 100 µM
TGI (SN12C renal): > 100 µM
GI50 (UO-31 renal): > 100 µM
TGI (UO-31 renal): > 100 µM
GI50 (PC-3 prostate): > 100 µM
TGI (PC-3 prostate): > 100 µM
GI50 (CCRF-CEM leukemia): 15.8 µM
TGI (CCRF-CEM leukemia): > 100 µM
GI50 (HOP-62 NSCLC): 4.4 µM
TGI (HOP-62 NSCLC): > 100 µM
GI50 (BT-549 breast): 21.8 µM
TGI (BT-549 breast): > 100 µM
GI50 (NCI-H522 lung): 5.58 µM
TGI (NCI-H522 lung): > 100 µM
